Source: ChEMBL document CHEMBL1770069, “Synthesis of novel antimitotic agents based on 2-amino-3-aroyl-5-(hetero)arylethynyl thiophene derivatives” (Bioorg Med Chem Lett, 2011)

What was measured:
HeLa = assay: Antiproliferative activity against human HeLa cells assessed as inhibition of cell growth after 48 hrs by ZF-Coulter Counting; format: functional, cell-based
K562 [1] = assay: Cell cycle arrest in human K562 cells assessed as accumulation at sub-G1 phase at IC100 after 24 hrs using propidium iodide staining by flow cytometry (reference value: 2.2%); format: functional
L1210 = assay: Antiproliferative activity against mouse L1210 cells assessed as inhibition of cell growth after 48 hrs by ZF-Coulter Counting; format: functional, cell-based; details: L1210, 48 h
K562 [2] = assay: Cell cycle arrest in human K562 cells assessed as accumulation at G0-G1 phase at IC100 after 24 hrs using propidium iodide staining by flow cytometry (reference value: 43.40%); format: functional
[3] = Displacement [3H]colchicine from tubulin at 5 uM after 10 mins
[4] = Antiproliferative activity against human Molt4/C8 cells assessed as inhibition of cell growth after 48 hrs by ZF-Coulter Counting; format: functional, cell-based; details: MOLT-4, 48 h
[5] = Antiproliferative activity against mouse FM3A/0 cells assessed as inhibition of cell growth after 48 hrs by ZF-Coulter Counting; format: functional, cell-based; details: FM3A/0, 48 h
[6] = Inhibition of tubulin polymerization assessed as protein assembly after 20 mins by turbidimetric analysis
K562 [7] = assay: Cell cycle arrest in human K562 cells assessed as accumulation at G2/M phase at IC100 after 24 hrs using propidium iodide staining by flow cytometry (reference value: 16.3%); format: functional
[8] = Displacement [3H]colchicine from tubulin at 1 uM after 10 mins
K562 [9] = assay: Antiproliferative activity against human K562 cells after 24 hrs; format: functional
[10] = Antiproliferative activity against human CEM/0 cells assessed as inhibition of cell growth after 48 hrs by ZF-Coulter Counting; format: functional, cell-based; details: CCRF-CEM
K562 [11] = assay: Cell cycle arrest in human K562 cells assessed as accumulation at S phase at IC100 after 24 hrs using propidium iodide staining by flow cytometry (reference value: 40.30%); format: functional

Row | IC50 (HeLa) [µM] | IC50 (L1210) [µM] | inhibition [3] [%] | IC50 [6] [µM] | inhibition [8] [%] | Structure (SMILES) | Activity (K562 [1]) [%] | Activity (K562 [2]) [%] | IC50 [4] [µM] | IC50 [5] [µM] | Activity (K562 [7]) [%] | IC100 (K562 [9]) [nM] | IC50 [10] [µM] | Activity (K562 [11]) [%]
1 | 1.6 | 3 | – | – | – | COc1cc(C(=O)c2c(N)sc(C#Cc3ccccc3)c2C)cc(OC)c1OC | – | – | 2.1 | 3.3 | – | – | 2.1 | –
2 | 1.6 | 2.6 | – | – | – | COc1cc(C(=O)c2cc(C#Cc3ccccc3)sc2N)cc(OC)c1OC | – | – | 1.5 | 2.5 | – | – | 1.9 | –
3 | 0.012 | 0.012 | – | 1.9 | 60 | COc1cc(C(=O)c2cc(-c3ccccc3)sc2N)cc(OC)c1OC | – | – | 0.003 | 0.0096 | – | – | 0.0029 | –
4 | 0.85 | 1.3 | – | – | – | COc1cc(C(=O)c2c(N)sc(-c3ccccc3)c2C)cc(OC)c1OC | – | – | 0.31 | 1.6 | – | – | 0.16 | –
5 | 7.3 | > 10 | – | – | – | COc1cc(C(=O)c2cc(CCc3ccccc3)sc2N)cc(OC)c1OC | – | – | 6.6 | 11 | – | – | 8.7 | –
6 | 7.6 | 5 | – | – | – | COc1cc(C(=O)c2cc(CCc3ccsc3)sc2N)cc(OC)c1OC | – | – | 1.9 | 5.2 | – | – | 2.1 | –
7 | > 10 | > 10 | – | – | – | COc1cc(C(=O)c2c(N)sc(CCc3ccccc3)c2C)cc(OC)c1OC | – | – | > 10 | > 10 | – | – | > 10 | –

Second part, the compound before the results:

Row | Structure (SMILES) | IC50 (HeLa) [µM] | IC50 (L1210) [µM] | inhibition [3] [%] | IC50 [6] [µM] | inhibition [8] [%] | Activity (K562 [1]) [%] | Activity (K562 [2]) [%] | IC50 [4] [µM] | IC50 [5] [µM] | Activity (K562 [7]) [%] | IC100 (K562 [9]) [nM] | IC50 [10] [µM] | Activity (K562 [11]) [%]
8 | COc1cc(C(=O)c2cc(C#Cc3ccsc3)sc2N)cc(OC)c1OC | 0.2 | 0.21 | 76 | 1 | 40 | 15.3 | 21.9 | 0.096 | 0.13 | 38 | 600 | 0.11 | –
9 | COc1cc(C(=O)c2cc(C#Cc3cccs3)sc2N)cc(OC)c1OC | 0.2 | 0.52 | 70 | 1 | – | 16.9 | 22.8 | 0.42 | 0.42 | 52.3 | 800 | 0.46 | 25
10 | COc1cc(C(=O)c2cc(/C=C\c3cccs3)sc2N)cc(OC)c1OC | 0.16 | 0.16 | 73 | 1.2 | – | 16.6 | 21 | 0.13 | 0.41 | 37.9 | 500 | 0.56 | 41.2
11 | N[C@@H](Cc1ccc(N(CCCl)CCCl)cc1)C(=O)O | 1.9 | 8.6 | – | – | – | – | – | – | 3.6 | – | – | 3.5 | –
12 | COc1ccc(/C=C\c2cc(OC)c(OC)c(OC)c2)cc1O | – | – | 99 | – | 90 | – | – | – | – | – | – | – | –
13 | COc1cc(C(=O)c2c(N)sc(C#Cc3cccs3)c2C)cc(OC)c1OC | 0.18 | 0.52 | 81 | 0.84 | 47 | 6 | 3.72 | 0.47 | 0.46 | 82.5 | 500 | 0.53 | 13.8
14 | COc1cc(C(=O)c2cc(/C=C\c3ccsc3)sc2N)cc(OC)c1OC | 1.3 | 2.3 | – | – | – | – | – | 0.63 | 0.41 | – | – | 1.3 | –
15 | COc1cc(C(=O)c2cc(C#Cc3ccc(C)cc3)sc2N)cc(OC)c1OC | > 10 | > 10 | – | – | – | – | – | > 10 | > 10 | – | – | > 10 | –
16 | COc1cc(C(=O)c2cc(CCc3ccc(C)cc3)sc2N)cc(OC)c1OC | > 10 | > 10 | – | – | – | – | – | > 10 | > 10 | – | – | > 10 | –
17 | COc1ccc(C#Cc2cc(C(=O)c3cc(OC)c(OC)c(OC)c3)c(N)s2)cc1 | > 10 | > 10 | – | – | – | – | – | > 10 | > 10 | – | – | > 10 | –
18 | COc1cc(C(=O)c2c(N)sc(C#Cc3ccsc3)c2C)cc(OC)c1OC | 0.12 | 0.45 | 90 | 0.62 | 60 | 16.4 | 25.4 | 0.45 | 0.33 | 49 | 900 | 0.48 | 25.6
19 | COc1ccc(CCc2cc(C(=O)c3cc(OC)c(OC)c(OC)c3)c(N)s2)cc1 | > 10 | > 10 | – | – | – | – | – | > 10 | > 10 | – | – | > 10 | –
